From patent US9284318B2, “Protein kinase inhibitors” (Pharmascience, Inc., priority 2011, dated 2016)

Legend:
cFMS(h) = biological target: T1, cFMS(h) (Homo sapiens, UniProt P07333); experiment: Kinase Profiler Service Assay, cFMS; format: biochemical; settings: at 100 nM
T1 construct: purchased Millipore (Kinase Profiler Service)
Procedure: (§1) Selected kinase binding affinities were determined using Kinase Profiler™ Service Assay Protocols (Millipore, V53.0).

Flt3 (h) = biological target: T2, Flt3 (h) (Homo sapiens, UniProt P36888); experiment: Kinase Profiler Service Assay, Flt3; format: biochemical; settings: at 100 nM
T2 construct: purchased Millipore (Kinase Profiler Service)
T2 sequence (P36888 27-993): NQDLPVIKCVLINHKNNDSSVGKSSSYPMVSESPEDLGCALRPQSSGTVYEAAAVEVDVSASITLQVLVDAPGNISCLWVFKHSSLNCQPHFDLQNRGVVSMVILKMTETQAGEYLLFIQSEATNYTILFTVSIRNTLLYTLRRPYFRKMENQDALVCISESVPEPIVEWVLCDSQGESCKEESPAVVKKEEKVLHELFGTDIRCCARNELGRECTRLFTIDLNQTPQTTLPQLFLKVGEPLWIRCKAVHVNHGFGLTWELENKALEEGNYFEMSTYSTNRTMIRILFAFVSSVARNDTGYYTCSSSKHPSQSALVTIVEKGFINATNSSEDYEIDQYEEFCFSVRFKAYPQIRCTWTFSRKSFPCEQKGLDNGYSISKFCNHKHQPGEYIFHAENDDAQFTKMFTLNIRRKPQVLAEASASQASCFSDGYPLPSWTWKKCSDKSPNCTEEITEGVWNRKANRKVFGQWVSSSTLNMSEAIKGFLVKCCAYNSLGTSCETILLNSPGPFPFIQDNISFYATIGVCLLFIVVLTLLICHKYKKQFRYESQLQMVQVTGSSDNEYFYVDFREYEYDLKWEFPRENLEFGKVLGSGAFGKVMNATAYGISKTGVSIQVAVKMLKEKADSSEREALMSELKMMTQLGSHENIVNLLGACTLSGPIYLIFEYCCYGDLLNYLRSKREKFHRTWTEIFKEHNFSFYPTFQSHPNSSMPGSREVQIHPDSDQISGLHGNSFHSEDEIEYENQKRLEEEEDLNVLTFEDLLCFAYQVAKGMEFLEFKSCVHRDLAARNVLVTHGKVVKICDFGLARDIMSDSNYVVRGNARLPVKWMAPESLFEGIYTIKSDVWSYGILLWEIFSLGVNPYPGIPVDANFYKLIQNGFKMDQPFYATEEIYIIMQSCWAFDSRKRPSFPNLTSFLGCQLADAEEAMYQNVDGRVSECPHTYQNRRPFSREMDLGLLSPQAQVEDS
Procedure: as §1

KDR(h) = biological target: T3, KDR(h) (Homo sapiens, UniProt P35968); experiment: Kinase Profiler Service Assay, KDR; format: biochemical; settings: at 100 nM
T3 construct: purchased Millipore (Kinase Profiler Service)
Procedure: as §1

FGFR1 = biological target: T4, FGFR1 (Homo sapiens, UniProt P11362); experiment: Kinase Profiler Service Assay, FGFR1; format: biochemical; settings: at 100 nM
T4 construct: purchased Millipore (Kinase Profiler Service)
Procedure: as §1

EphA2 = biological target: T5, EphA2 (Homo sapiens, UniProt P29317); experiment: Kinase Profiler Service Assay, EphA2; format: biochemical; settings: at 100 nM
T5 construct: purchased Millipore (Kinase Profiler Service)
Procedure: as §1

216 other kinases = experiment: Kinase Profiler Service Assay, selectivity panel; format: biochemical; settings: at 300 nM
Procedure: as §1

[1] = biological target: T6, recombinant human colony stimulating factor 1 receptor (FMS) (Homo sapiens, UniProt P07333); experiment: Biochemical cFMS (CSF1R) fluorescence polarization kinase assay; settings: 10 μM ATP, 100 μM substrate, 60 minutes
T6 construct: containing the catalytic domain (amino acids 538-910); His tag; purchased Invitrogen; host or cells: insect cells
T6 sequence (P07333 538-910): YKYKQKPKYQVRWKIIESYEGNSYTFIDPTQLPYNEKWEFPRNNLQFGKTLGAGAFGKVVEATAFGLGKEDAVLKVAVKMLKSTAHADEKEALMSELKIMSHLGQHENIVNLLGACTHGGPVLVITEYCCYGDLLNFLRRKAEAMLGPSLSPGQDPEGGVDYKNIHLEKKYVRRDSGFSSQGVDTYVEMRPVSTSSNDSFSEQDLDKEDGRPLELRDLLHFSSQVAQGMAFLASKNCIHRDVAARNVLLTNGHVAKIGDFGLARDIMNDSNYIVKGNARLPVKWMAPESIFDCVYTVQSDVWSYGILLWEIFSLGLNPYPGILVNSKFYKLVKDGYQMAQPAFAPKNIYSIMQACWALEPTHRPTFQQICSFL
Procedure: Biochemical cFMS (CSF1R) Assay:
Fluorescence polarization-based kinase biochemical assays were performed in 384 well-plate format using histidine tagged recombinant human colony stimulating factor 1 receptor (FMS) supplied from Invitrogen™ (containing the catalytic domain (amino acids 538-910), expressed in insect cells and activated in vitro via auto phosphorylation) and a modified protocol of the KinEASE™ FP Fluorescein Green Assay supplied from Millipore™.
Kinase reactions were performed in 384 well plate format at room temperature for 60 minutes in presence of 100 μM substrate, 10 μM ATP and variable test article concentrations. The reaction was stopped with EDTA/KinEASE™ detection reagents and the polarization measured on a Tecan 500 instrument. From the dose-response curve obtained, the IC50 was estimated using Graph pad Prisms® using a non linear fit curve.

[2] = tested on: M-NFS-60 M-CSF-dependent myeloid leukemia cells; experiment: Murine M-CSF-dependent M-NFS-60 cell survival assay; format: cell-based; settings: Mus musculus; cell survival at 72 hours, 20 ng/ml M-CSF, Cell Titer-Glo
Procedure: Cellular Assays: Murine M-CSF-Dependent M-NFS-60 Cell Survival Assay
Murine M-NFS-60 M-CSF-dependent myeloid leukemia cells were purchased from ATCC (CRL-1838). Cells were routinely cultured at 37° C., 5% CO2 in complete medium (RPMI supplemented with 10% FBS, 1% penicillin/streptomycin, 50 uM beta mercaptoethanol) containing 30 ng/ml recombinant murine M-CSF (Peprotech 315-02). For survival assays, cells were transferred to depleted medium (complete medium depleted of M-CSF) for 24 hours prior to initiation of each experiment. M-CSF-starved cells were harvested and re-suspended in complete medium containing 20 ng/ml M-CSF. Cells were seeded at 25,000 cells/well in 96-well plates and incubated for 1 hour at 37° C., 5% CO2. Cells were treated with 1 uM or 10 uM compound curves in triplicate and cell survival was measured 72 hours later by Cell Titer-Glo Luminescent Assay (Promega). Luminescence was read using a Tecan Infinite F200 microplate reader. EC50 values (50% survival in the presence of compound as compared to vehicle treated controls) were calculated from non-linear fit dose response compound curves using GraphPad Prism Software.

MV4-11 cells = experiment: Human MV4-11 biphenotypic B myelomonocytic leukemia cell survival assay; format: cell-based; settings: cell survival at 72h, Cell Titer-Glo
Procedure: Human MV4-11 Biphenotypic B Myelomonocytic Leukemia Cell Survival Assay
Biphenotypic B myelomonocytic leukemia MV4-11 cells (ATCC CRL-9591) were cultured in suspension at 37° C., 5% CO2 in complete medium (RPMI supplemented with 10% FBS, 1% penicillin/streptomycin). One day prior to treatment, cells per seeded in 96-well plates at 8000 cells/well in complete medium. The following day, triplicate wells were treated with compound curves of 100, 1000 or 10,000 nM starting concentration according to compound potency. Cell survival was measured 72h later by Cell Titer-Glo Luminescent Assay (Promega). Luminescence was read using a Tecan Infinite F200 microplate reader. EC50 values (50% survival in the presence of compound as compared to vehicle treated controls) were calculated from non-linear fit dose response compound curves using CambridgeSoft BioAssay software (Perkin Elmer).

Aurora-B(h) = biological target: T7, Aurora-B(h) (Homo sapiens, UniProt Q96GD4); experiment: Kinase Profiler Service Assay, Aurora-B; format: biochemical; settings: at 100 nM
T7 construct: purchased Millipore (Kinase Profiler Service)
Procedure: as §1

PDGFR-b(h) = biological target: T8, PDGFR-b(h) (Homo sapiens, UniProt P09619); experiment: Kinase Profiler Service Assay, PDGFR-b; format: biochemical; settings: at 100 nM
T8 construct: purchased Millipore (Kinase Profiler Service)
Procedure: as §1

Tie2 = biological target: T9, Tie2 (Homo sapiens, UniProt Q02763); experiment: Kinase Profiler Service Assay, Tie2; format: biochemical; settings: at 100 nM
T9 construct: purchased Millipore (Kinase Profiler Service)
Procedure: as §1

FLT4 = biological target: T10, FLT4 (Homo sapiens, UniProt P35916); experiment: Kinase Profiler Service Assay, FLT4; format: biochemical; settings: at 100 nM
T10 construct: purchased Millipore (Kinase Profiler Service)
Procedure: as §1

T1 sequence (P07333 20-972): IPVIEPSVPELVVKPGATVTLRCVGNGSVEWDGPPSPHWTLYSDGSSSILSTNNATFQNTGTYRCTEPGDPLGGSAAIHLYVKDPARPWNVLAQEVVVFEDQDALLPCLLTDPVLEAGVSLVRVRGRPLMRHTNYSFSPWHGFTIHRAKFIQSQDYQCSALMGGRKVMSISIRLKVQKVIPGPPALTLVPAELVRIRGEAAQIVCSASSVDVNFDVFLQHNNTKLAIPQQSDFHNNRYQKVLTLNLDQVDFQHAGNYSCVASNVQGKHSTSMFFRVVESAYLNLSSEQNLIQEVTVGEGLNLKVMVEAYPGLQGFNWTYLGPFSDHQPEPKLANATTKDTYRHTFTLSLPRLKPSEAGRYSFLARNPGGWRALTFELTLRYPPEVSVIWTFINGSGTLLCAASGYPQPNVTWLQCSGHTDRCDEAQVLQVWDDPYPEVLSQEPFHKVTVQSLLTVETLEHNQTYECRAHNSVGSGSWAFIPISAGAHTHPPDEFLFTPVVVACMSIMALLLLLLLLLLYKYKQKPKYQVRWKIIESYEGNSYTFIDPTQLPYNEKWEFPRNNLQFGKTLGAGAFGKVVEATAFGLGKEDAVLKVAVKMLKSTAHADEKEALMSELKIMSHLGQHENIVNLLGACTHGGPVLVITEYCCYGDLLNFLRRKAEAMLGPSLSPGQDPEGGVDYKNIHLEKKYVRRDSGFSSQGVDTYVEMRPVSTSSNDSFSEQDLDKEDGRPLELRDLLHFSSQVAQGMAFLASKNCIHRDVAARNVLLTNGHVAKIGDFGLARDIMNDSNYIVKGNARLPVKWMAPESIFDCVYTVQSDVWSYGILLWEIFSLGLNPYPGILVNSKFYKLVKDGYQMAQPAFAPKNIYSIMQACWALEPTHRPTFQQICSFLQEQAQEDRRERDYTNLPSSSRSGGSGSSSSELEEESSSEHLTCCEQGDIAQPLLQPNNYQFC
T3 sequence (P35968 20-1356): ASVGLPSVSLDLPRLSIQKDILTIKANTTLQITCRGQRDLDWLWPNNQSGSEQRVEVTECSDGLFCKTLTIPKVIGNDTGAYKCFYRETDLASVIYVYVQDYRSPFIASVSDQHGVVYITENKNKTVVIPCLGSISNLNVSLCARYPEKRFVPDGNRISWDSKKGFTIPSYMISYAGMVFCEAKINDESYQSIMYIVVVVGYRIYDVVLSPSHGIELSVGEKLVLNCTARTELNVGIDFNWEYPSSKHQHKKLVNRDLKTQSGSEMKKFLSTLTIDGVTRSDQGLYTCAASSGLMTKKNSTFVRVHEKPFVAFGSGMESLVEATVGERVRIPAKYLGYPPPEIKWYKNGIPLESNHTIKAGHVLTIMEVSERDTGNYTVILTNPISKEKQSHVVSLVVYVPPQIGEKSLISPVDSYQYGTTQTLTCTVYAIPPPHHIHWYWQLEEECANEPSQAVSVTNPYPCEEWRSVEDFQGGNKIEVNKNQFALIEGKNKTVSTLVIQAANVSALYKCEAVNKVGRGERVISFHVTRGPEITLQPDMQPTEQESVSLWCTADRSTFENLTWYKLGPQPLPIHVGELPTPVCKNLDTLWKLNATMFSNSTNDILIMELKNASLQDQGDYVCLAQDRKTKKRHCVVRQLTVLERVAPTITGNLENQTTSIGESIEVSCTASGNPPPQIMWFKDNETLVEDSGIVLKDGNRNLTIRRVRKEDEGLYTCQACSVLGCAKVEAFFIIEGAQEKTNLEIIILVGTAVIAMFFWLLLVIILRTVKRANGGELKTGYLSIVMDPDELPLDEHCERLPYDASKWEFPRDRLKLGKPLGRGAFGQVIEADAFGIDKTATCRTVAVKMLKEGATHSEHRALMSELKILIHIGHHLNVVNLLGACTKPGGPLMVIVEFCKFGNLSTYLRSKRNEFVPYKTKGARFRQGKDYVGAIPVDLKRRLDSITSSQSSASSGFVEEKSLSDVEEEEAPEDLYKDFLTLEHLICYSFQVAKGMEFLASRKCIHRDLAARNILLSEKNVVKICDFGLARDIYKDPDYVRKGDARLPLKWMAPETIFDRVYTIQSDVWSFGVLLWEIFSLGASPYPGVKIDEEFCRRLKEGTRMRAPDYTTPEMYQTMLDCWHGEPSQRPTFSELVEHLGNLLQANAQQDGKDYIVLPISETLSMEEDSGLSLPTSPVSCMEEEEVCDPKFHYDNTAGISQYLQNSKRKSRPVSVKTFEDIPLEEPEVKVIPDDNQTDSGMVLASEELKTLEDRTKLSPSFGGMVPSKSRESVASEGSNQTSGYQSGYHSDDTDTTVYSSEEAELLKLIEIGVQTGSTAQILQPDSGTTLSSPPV
T4 sequence (P11362 22-822): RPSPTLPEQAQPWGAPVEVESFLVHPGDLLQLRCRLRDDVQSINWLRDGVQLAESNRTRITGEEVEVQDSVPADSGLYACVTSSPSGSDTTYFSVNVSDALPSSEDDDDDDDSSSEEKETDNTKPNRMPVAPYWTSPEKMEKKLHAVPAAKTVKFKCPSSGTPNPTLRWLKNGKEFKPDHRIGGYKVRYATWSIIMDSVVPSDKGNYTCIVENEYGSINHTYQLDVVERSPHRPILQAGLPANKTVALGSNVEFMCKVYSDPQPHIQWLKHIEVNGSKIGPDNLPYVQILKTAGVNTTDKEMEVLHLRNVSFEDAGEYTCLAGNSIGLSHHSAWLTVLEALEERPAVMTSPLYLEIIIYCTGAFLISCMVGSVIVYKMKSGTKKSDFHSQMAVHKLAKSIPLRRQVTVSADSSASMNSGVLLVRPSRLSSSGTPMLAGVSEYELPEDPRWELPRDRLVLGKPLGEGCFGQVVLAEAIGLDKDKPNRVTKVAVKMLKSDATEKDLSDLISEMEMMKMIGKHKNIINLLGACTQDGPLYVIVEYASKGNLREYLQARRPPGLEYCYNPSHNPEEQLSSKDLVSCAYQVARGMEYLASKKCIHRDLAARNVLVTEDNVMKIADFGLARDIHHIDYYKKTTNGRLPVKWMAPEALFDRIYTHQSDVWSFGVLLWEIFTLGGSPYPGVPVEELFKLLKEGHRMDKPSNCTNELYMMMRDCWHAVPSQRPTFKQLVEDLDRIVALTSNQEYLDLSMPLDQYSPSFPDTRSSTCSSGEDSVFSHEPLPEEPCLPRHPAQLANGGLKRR
T7 sequence (Q96GD4 whole entry): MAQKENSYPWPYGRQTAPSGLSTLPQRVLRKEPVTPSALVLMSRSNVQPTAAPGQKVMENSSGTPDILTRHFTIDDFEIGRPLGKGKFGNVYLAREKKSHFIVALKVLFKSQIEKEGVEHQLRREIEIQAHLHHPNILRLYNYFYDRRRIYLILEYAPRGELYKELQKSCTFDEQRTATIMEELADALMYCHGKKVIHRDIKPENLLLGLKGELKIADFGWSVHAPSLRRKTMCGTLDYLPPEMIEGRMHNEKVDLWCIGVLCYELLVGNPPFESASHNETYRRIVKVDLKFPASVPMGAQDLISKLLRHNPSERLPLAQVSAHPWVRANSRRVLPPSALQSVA
T10 sequence (P35916 25-1363): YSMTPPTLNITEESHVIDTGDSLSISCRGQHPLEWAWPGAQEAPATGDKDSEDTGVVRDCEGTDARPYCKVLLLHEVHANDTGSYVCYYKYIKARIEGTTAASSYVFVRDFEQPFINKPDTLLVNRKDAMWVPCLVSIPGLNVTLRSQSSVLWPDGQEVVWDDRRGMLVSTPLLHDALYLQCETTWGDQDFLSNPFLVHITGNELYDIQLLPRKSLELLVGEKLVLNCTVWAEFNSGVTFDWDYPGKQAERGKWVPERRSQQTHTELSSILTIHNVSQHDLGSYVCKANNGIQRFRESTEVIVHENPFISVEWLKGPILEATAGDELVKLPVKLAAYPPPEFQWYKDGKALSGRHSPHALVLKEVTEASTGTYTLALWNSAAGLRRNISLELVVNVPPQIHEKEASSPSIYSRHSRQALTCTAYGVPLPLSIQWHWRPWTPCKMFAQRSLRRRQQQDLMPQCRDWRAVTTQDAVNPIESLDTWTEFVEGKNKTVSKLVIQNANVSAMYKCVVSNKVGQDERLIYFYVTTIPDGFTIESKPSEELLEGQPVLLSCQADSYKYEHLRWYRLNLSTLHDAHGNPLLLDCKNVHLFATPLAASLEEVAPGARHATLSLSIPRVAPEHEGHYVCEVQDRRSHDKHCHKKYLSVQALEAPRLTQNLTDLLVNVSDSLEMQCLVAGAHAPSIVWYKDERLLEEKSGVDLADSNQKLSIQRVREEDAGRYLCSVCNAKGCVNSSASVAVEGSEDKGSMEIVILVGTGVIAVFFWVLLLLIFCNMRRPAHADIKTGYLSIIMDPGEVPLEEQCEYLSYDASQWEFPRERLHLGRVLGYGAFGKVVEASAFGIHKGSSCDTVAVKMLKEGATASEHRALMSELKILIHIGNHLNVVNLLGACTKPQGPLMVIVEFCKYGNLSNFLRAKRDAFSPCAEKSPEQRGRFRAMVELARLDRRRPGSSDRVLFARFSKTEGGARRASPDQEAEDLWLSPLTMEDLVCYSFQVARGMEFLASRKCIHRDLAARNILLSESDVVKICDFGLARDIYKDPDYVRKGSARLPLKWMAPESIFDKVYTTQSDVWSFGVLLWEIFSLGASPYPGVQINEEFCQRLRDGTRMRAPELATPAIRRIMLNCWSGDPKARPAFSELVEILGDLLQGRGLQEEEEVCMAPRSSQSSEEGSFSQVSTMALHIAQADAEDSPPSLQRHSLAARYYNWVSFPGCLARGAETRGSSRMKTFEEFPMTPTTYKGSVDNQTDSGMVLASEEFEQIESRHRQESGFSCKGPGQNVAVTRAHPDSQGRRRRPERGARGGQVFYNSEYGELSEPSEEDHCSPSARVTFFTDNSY

Structure (SMILES) | IC50 [1] | EC50 [2] | EC50 (MV4-11 cells) | other results
Nc1ncnc2c3c(n(-c4ccc(NC(=O)Nc5cc(C(F)(F)F)ccc5F)cc4)c12)CCC3 [Compound 44] | 100 to 1000 nM | 100 to 1000 nM | < 100 nM | inhibition of cFMS (cFMS(h)): inhibits; inhibition of Flt3 (Flt3 (h)): inhibits; inhibition of KDR (KDR(h)): inhibits; inhibition of FGFR1 (FGFR1): inhibits; inhibition of EphA2 (EphA2): inhibits; inhibition of 216 other kinases (selectivity) (216 other kinases): ≤ 20%
Nc1ncnc2c3c(n(-c4ccc(NC(=O)Nc5ccc(F)cc5)cc4)c12)CCC3 [Compound 14] | 100 to 1000 nM | < 100 nM | < 100 nM | inhibition of cFMS (cFMS(h)): inhibits; inhibition of Aurora-B (Aurora-B(h)): inhibits; inhibition of Flt3 (Flt3 (h)): inhibits; inhibition of KDR (KDR(h)): inhibits; inhibition of PDGFR-b (PDGFR-b(h)): inhibits; inhibition of FGFR1 (FGFR1): inhibits; inhibition of Tie2 (Tie2): inhibits; inhibition of FLT4 (FLT4): inhibits
COc1ccccc1NC(=O)Nc1ccc(-n2c3c(c4ncnc(N)c42)CCC3)cc1 [Compound 16] | 100 to 1000 nM | < 100 nM | < 100 nM | –
COc1cc(NC(=O)Nc2ccc(-n3c4c(c5ncnc(N)c53)CCC4)cc2)ccc1F [Compound 35] | < 100 nM | 100 to 1000 nM | < 100 nM | –
Cc1ccc(F)c(NC(=O)Nc2ccc(-n3c4c(c5ncnc(N)c53)COC4)cc2)c1 [Compound 47] | 100 to 1000 nM | < 100 nM | < 100 nM | –
Nc1ncnc2c3c(n(-c4ccc(NC(=O)Nc5cccc(F)c5)cc4)c12)CCC3 [Compound 19] | < 100 nM | < 100 nM | 100 to 1000 nM | –
N#Cc1cccc(NC(=O)Nc2ccc(-n3c4c(c5ncnc(N)c53)CCC4)cc2)c1 [Compound 66] | 100 to 1000 nM | 100 to 1000 nM | < 100 nM | –
Nc1ncnc2c3c(n(-c4ccc(NC(=O)Nc5cc(C(F)(F)F)ccc5F)cc4)c12)COC3 [Compound 67] | 100 to 1000 nM | 100 to 1000 nM | < 100 nM | –
C[C@@H](NC(=O)Nc1ccc(-n2c3c(c4ncnc(N)c42)CCC3)cc1)c1ccc(F)cc1 [Compound 73] | 100 to 1000 nM | 100 to 1000 nM | < 100 nM | –
CS(=O)(=O)c1cccc(NC(=O)Nc2ccc(-n3c4c(c5ncnc(N)c53)CCC4)cc2)c1 [Compound 72] | 100 to 1000 nM | 100 to 1000 nM | < 100 nM | –
COc1ccc(NC(=O)Nc2ccc(-n3c4c(c5ncnc(N)c53)CCC4)cc2)cc1C(F)(F)F [Compound 55] | 100 to 1000 nM | 100 to 1000 nM | < 100 nM | –
COc1ccc(NC(=O)Nc2ccc(-n3c4c(c5ncnc(N)c53)CCC4)cc2)c(F)c1 [Compound 54] | < 100 nM | < 100 nM | < 100 nM | –
Nc1ncnc2c3c(n(-c4ccc(NC(=O)Nc5cccc(C(F)(F)F)c5)c(F)c4)c12)CCC3 [Compound 63] | 100 to 1000 nM | < 100 nM | < 100 nM | –
Nc1ncnc2c3c(n(-c4ccc(NC(=O)Nc5ccc6c(c5)OCO6)cc4)c12)CCC3 [Compound 28] | < 100 nM | < 100 nM | < 100 nM | –
Nc1ncnc2c3c(n(-c4ccc(NC(=O)Nc5ccccc5OC(F)F)cc4)c12)CCC3 [Compound 68] | 100 to 1000 nM | 100 to 1000 nM | < 100 nM | –
Nc1ncnc2c3c(n(-c4ccc(NC(=O)Nc5cccc(Cl)c5)cc4)c12)CCC3 [Compound 20] | 100 to 1000 nM | < 100 nM | 100 to 1000 nM | –
Nc1ncnc2c3c(n(-c4ccc(NC(=O)NCCc5ccccc5)cc4)c12)CCC3 [Compound 46] | 100 to 1000 nM | 100 to 1000 nM | < 100 nM | –
